Consider one compound from paper PMC5025758 (Nature Communications, 2016).

In one assay the target is Pks10 (Mycobacterium tuberculosis, UniProt Q7VEV2). The format is biochemical.
For another assay, the target named is T1, COX-2 (Homo sapiens, UniProt P35354).
T1 construct: gene PTGS2
Kind of assay: biochemical. The arrangement: off-target selectivity panel, enzyme and kinase inhibition, pXC50. The settings on record: read-out: pXC50 (enzyme inhibition) (converted). An excerpt:
(§1) From the outset, GSK3011724A, an indazole sulfonamide (Fig. 1a), represented an attractive compound for early stage drug discovery based on its anti-mycobacterial potency, small size and moderate lipophilicity (Table 1). Further profiling in vitro using standard assays, such as the hERG ion channel and cytochrome P450 isoforms supported this view (Table 1). […] A description of this optimization effort along with a thorough discussion of the drug development potential and liabilities of this series will be the subject of a future publication.

In the next assay the target is LCK (Homo sapiens, UniProt P06239). Kind of assay: biochemical. The arrangement: off-target selectivity panel, enzyme and kinase inhibition, pXC50. The settings on record: read-out: pXC50 (enzyme inhibition) (converted).
Sequence of LCK (P06239 whole entry): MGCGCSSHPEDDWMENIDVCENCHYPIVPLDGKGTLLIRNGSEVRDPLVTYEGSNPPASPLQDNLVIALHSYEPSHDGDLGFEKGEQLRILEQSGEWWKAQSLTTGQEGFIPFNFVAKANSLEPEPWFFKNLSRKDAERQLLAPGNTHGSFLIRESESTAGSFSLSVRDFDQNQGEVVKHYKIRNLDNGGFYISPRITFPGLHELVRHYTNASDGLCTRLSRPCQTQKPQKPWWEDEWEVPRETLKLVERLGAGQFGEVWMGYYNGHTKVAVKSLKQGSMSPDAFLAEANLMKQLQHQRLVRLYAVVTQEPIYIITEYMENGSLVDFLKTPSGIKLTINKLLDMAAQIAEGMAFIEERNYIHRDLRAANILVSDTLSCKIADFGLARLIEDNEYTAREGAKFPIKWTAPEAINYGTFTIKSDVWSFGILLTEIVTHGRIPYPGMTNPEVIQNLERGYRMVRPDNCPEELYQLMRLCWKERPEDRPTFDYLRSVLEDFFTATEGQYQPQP
Description: as §1

The next assay concerns the target T2, Acetylcholinesterase (Homo sapiens, UniProt P22303).
T2 construct: gene ACHE
Kind of assay: biochemical. The settings on record: read-out: pXC50 (enzyme inhibition) (converted). More on the design: off-target selectivity panel, enzyme and kinase inhibition, pXC50.
Description: as §1

The target in another assay is PDE3A (Homo sapiens, UniProt Q14432). Kind of assay: biochemical. The arrangement: off-target selectivity panel, enzyme and kinase inhibition, pXC50. The settings on record: read-out: pXC50 (enzyme inhibition) (converted).
Description: as §1

The next assay has as its target T3, PI3Kγ (Homo sapiens, UniProt P48736).
T3 construct: gene PIK3CG
Kind of assay: biochemical. More on the design: off-target selectivity panel, enzyme and kinase inhibition, pXC50. The settings on record: read-out: pXC50 (enzyme inhibition) (converted).
Description: as §1

For another assay, the target named is AhR (Homo sapiens, UniProt P35869). In words: cell-based. More on the design: off-target selectivity panel, receptor agonist or channel opener mode, pXC50. The settings on record: agonist mode; read-out: pXC50 (agonist) (converted).
Sequence of AhR (P35869 whole entry): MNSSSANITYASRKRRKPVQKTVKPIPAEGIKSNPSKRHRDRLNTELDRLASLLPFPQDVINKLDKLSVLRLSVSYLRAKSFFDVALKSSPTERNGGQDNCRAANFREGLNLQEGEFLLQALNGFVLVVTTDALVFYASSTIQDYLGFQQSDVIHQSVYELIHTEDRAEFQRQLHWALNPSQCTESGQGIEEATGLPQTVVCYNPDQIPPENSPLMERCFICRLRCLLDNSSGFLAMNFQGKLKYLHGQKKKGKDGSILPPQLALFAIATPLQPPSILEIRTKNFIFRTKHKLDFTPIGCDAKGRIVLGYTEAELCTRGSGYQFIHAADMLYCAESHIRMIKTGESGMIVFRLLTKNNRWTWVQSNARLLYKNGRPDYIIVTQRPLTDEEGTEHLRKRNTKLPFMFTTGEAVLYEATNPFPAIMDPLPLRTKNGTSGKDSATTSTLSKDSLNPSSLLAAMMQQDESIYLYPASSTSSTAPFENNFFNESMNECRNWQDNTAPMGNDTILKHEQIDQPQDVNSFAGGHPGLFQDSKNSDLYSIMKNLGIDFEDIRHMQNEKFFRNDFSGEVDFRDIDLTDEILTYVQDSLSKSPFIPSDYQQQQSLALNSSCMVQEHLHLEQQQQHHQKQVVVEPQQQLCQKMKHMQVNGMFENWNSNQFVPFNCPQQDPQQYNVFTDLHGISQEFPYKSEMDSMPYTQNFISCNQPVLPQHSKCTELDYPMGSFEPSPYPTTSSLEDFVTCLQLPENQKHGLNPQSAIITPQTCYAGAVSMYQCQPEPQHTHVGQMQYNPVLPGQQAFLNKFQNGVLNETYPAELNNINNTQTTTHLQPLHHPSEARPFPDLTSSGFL
Description: as §1

The target of the next assay is T4, Serotonin 5HT2C (Homo sapiens, UniProt P28335).
T4 construct: gene HTR2C
T4 sequence (P28335 whole entry): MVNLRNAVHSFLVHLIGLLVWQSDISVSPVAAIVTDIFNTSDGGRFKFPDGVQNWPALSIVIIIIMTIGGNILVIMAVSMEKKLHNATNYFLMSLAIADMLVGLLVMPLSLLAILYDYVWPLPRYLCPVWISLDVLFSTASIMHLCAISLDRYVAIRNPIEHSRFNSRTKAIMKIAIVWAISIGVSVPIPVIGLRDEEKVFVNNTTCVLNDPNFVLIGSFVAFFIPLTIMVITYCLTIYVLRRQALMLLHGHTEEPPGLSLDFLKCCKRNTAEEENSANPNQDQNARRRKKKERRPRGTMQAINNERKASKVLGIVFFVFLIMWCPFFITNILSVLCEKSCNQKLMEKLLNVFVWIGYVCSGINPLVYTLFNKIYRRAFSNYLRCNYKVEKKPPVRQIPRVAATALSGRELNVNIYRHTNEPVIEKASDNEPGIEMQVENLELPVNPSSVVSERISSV
Kind of assay: cell-based. More on the design: off-target selectivity panel, receptor agonist or channel opener mode, pXC50. The settings on record: agonist mode; read-out: pXC50 (agonist) (converted).
Description: as §1

The target of another assay is T5, Adenosine A2a (Homo sapiens, UniProt P29274).
T5 construct: gene ADORA2A
T5 sequence (P29274 whole entry): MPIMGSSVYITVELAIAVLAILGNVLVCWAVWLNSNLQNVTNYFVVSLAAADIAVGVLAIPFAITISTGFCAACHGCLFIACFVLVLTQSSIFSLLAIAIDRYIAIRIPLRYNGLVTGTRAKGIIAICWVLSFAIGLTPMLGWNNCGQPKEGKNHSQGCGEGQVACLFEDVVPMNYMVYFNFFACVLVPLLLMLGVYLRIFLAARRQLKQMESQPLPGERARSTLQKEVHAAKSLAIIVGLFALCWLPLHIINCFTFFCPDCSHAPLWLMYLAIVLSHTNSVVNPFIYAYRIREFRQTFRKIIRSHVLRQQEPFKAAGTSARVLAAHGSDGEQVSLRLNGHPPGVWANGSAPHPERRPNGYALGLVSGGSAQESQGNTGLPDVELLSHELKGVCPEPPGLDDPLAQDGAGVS
In words: cell-based. More on the design: off-target selectivity panel, receptor agonist or channel opener mode, pXC50. The settings on record: agonist mode; read-out: pXC50 (agonist) (converted).
Description: as §1

The target in the next assay is T6, Dopamine D2 (Homo sapiens, UniProt P14416).
T6 construct: gene DRD2
T6 sequence (P14416 whole entry): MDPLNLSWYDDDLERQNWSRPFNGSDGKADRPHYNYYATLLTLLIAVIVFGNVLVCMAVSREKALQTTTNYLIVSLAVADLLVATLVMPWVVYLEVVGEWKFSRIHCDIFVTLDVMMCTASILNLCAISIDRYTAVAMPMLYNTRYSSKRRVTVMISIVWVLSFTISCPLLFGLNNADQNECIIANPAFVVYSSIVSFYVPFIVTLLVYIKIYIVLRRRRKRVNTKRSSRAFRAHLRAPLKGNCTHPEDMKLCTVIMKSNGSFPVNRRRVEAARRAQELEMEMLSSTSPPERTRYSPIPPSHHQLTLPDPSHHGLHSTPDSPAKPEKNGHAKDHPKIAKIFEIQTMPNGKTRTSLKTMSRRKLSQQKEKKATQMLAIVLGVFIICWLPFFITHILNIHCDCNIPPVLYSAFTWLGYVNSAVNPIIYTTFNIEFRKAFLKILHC
Kind of assay: cell-based. The arrangement: off-target selectivity panel, receptor agonist or channel opener mode, pXC50. As to conditions: agonist mode; read-out: pXC50 (agonist) (converted).
Description: as §1

Another assay addresses T7, Opioid μ (Homo sapiens, UniProt P35372).
T7 construct: gene OPRM1
Kind of assay: cell-based. More on the design: off-target selectivity panel, receptor agonist or channel opener mode, pXC50. The settings on record: agonist mode; read-out: pXC50 (agonist) (converted).
Description: as §1

For another assay, the target named is T8, Opioid κ (Homo sapiens, UniProt P41145).
T8 construct: gene OPRK1
Kind of assay: cell-based. As to conditions: agonist mode; read-out: pXC50 (agonist) (converted). The arrangement: off-target selectivity panel, receptor agonist or channel opener mode, pXC50.
Description: as §1

Another assay concerns the target T9, α1 nicotinic AChR (Homo sapiens, UniProt P02708).
T9 construct: gene CHRNA1
In words: cell-based. The arrangement: off-target selectivity panel, receptor agonist or channel opener mode, pXC50. The settings on record: opener mode; read-out: pXC50 (opener) (converted).
Description: as §1

Another assay deals with T10, Serotonin 5HT3 (Homo sapiens, UniProt P46098).
T10 construct: gene HTR3A
In words: cell-based. The arrangement: off-target selectivity panel, receptor agonist or channel opener mode, pXC50. As to conditions: opener mode; read-out: pXC50 (opener) (converted).
Description: as §1

For the next assay, the target named is T11, Muscarine M1 (Homo sapiens, UniProt P11229).
T11 construct: gene CHRM1
Kind of assay: cell-based. The arrangement: off-target selectivity panel, receptor agonist or channel opener mode, pXC50. As to conditions: agonist mode; read-out: pXC50 (agonist) (converted).
Description: as §1

A further assay addresses T12, Muscarine M2 (Homo sapiens, UniProt P08172).
T12 construct: gene CHRM2
In words: cell-based. More on the design: off-target selectivity panel, receptor agonist or channel opener mode, pXC50. As to conditions: agonist mode; read-out: pXC50 (agonist) (converted).
Description: as §1

The target of another assay is T13, Adrenergic α2C (Homo sapiens, UniProt P18825).
T13 construct: gene ADRA2C
In words: cell-based. The settings on record: agonist mode; read-out: pXC50 (agonist) (converted). The arrangement: off-target selectivity panel, receptor agonist or channel opener mode, pXC50.
Description: as §1

Another assay addresses T14, PXR (Homo sapiens, UniProt O75469).
T14 construct: gene NR1I2
In words: cell-based. The arrangement: off-target selectivity panel, receptor agonist or channel opener mode, pXC50. The settings on record: agonist mode; read-out: pXC50 (agonist) (converted).
Description: as §1

Another assay has as its target T15, Serotonin 5HT1B (Homo sapiens, UniProt P28222).
T15 construct: gene HTR1B
Kind of assay: cell-based. The settings on record: agonist mode; read-out: pXC50 (agonist) (converted). The arrangement: off-target selectivity panel, receptor agonist or channel opener mode, pXC50.
Description: as §1

The next assay concerns the target T16, Adrenergic β2 (Homo sapiens, UniProt P07550).
T16 construct: gene ADRB2
In words: cell-based. The arrangement: off-target selectivity panel, receptor agonist or channel opener mode, pXC50. The settings on record: agonist mode; read-out: pXC50 (agonist) (converted).
Description: as §1

Another assay addresses T17, Cannabinoid CB2 (Homo sapiens, UniProt P34972).
T17 construct: gene CNR2
Kind of assay: cell-based. The arrangement: off-target selectivity panel, receptor agonist or channel opener mode, pXC50. The settings on record: agonist mode; read-out: pXC50 (agonist) (converted).
Description: as §1

The target of the next assay is Pks11. It counts as biochemical, Mycobacterium bovis BCG.

Structures are written as SMILES. pKd: −log10 of the molar value. Some results are limits rather than exact numbers.

T7 sequence (P35372 whole entry): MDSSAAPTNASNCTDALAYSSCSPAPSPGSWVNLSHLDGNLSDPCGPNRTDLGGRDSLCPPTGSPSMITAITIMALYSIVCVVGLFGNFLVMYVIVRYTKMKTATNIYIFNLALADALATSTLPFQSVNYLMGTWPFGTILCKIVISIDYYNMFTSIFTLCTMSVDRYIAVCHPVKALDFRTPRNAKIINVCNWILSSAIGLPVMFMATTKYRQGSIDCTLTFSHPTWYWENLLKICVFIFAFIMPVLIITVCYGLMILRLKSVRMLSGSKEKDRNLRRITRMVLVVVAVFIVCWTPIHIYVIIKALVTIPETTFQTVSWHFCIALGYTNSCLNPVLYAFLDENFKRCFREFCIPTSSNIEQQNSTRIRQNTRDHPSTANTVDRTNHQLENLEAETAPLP
T2 sequence (P22303 whole entry): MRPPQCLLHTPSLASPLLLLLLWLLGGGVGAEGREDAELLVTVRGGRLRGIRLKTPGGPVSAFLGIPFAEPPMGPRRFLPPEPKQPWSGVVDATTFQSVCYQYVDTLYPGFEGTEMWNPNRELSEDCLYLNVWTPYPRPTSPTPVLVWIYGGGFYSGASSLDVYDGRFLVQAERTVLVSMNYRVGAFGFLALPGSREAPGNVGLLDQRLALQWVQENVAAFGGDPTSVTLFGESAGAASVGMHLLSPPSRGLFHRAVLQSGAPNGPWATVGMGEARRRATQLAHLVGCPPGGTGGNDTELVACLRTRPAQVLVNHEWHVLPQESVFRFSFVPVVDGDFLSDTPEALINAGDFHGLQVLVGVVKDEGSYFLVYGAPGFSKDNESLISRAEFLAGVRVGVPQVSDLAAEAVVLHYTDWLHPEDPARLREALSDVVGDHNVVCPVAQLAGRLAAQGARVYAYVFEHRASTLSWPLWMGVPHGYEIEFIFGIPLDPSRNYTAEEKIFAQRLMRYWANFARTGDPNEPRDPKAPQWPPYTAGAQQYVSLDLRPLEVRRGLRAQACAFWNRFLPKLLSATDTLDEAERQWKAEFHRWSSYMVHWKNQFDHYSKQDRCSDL
Sequence of Pks10 (Q7VEV2 whole entry, looked up): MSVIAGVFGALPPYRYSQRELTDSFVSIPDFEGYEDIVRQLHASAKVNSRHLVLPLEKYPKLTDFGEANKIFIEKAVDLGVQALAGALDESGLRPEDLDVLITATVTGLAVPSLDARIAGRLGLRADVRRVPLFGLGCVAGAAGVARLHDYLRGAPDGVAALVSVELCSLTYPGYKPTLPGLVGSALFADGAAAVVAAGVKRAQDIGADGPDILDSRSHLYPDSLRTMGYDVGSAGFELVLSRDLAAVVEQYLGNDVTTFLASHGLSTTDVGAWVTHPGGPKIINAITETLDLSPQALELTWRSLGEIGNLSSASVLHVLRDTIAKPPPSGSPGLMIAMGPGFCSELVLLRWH
T15 sequence (P28222 whole entry): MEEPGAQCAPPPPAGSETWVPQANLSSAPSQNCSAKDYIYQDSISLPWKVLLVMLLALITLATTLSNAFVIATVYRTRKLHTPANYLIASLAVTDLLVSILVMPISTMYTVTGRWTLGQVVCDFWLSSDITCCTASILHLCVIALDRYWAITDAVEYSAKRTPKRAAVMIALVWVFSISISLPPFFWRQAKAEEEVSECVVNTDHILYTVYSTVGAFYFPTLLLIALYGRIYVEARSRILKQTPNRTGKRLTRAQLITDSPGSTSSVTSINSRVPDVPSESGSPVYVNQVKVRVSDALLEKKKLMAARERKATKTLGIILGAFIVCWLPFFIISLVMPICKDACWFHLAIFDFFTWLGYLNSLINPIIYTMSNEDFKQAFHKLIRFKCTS
T16 sequence (P07550 whole entry): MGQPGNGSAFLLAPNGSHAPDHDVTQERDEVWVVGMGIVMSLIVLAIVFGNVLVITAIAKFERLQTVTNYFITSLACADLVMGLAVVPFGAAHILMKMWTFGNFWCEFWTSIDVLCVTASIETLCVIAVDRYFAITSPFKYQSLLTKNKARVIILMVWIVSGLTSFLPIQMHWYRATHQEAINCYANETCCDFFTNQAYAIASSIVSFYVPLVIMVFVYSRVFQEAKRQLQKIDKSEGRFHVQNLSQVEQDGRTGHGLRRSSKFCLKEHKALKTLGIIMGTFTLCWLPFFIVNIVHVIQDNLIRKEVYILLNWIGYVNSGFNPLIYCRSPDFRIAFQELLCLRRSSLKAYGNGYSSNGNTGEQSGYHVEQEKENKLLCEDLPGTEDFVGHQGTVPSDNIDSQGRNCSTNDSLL

As for `CCCCS(=O)(=O)Nc1ccc2cnn(C)c2c1` [GSK3011724A], the pKd on Pks10 and at Pks11 was 5.85 in each case. The IC50 at COX-2 is more than 100 µM; on LCK it was more than 31.6 µM; at Acetylcholinesterase it was more than 100 µM; at PDE3A, more than 100 µM; on PI3Kγ, more than 31.6 µM. The EC50 was more than 100 µM on AhR; more than 25.1 µM at Serotonin 5HT2C; more than 100 µM on Adenosine A2a; more than 100 µM at Dopamine D2; more than 100 µM on Opioid μ; more than 100 µM at Opioid κ. Besides, the EC50 at α1 nicotinic AChR was more than 50.1 µM; at Serotonin 5HT3, more than 50.1 µM; at Muscarine M1 it was more than 50.1 µM; on Muscarine M2 it was more than 50.1 µM; at Adrenergic α2C, more than 100 µM; on PXR it was more than 50.1 µM. In addition, the EC50 at Serotonin 5HT1B, on Adrenergic β2 and on Cannabinoid CB2 was more than 100 µM each time.
